Experiments:
Format in all cases: in vivo
[1] = test system: Puccinia recondita f. sp. tritici; experiment: Test C: wheat leaf rust, spray the day after inoculation of wheat seedlings; conditions: Puccinia recondita, 120 h, wheat seedlings inoculated, sprayed the following day, rated after 5 days, read-out: Percentage Disease Control Test C;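 note: Curative spray on infected wheat seedlings with visual rating 5 days later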
Outline: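 Wheat seedlings inoculated with P. recondita spores, held 24 h at 20 °C in saturated atmosphere, then sprayed to run-off next day (curative). Test suspension in acetone/water with 250 ppm surfactant, 200 ppm (≈800 g/ha) or 40 ppm. Disease rated visually after 5 days at 20 °C as % control relative to untreated.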

[2] = test system: Alternaria solani; experiment: Test G: tomato early blight, preventive spray on tomato seedlings; conditions: Alternaria solani, topical, 168 h, tomato seedlings sprayed to run-off, inoculated next day, rated after 48 h + 5 days, read-out: Percentage Disease Control Test G
Outline: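 Tomato seedlings sprayed to run-off with compound at 200 ppm (≈800 g/ha) or 40 ppm where marked, in acetone/water with 250 ppm Trem 014. Plants inoculated with A. solani spores the next day, held 48 h saturated at 27 °C, then 5 days at 24 °C. Disease visually rated as % control relative to untreated plants.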

[3] = test system: Botrytis cinerea; experiment: Test F: tomato botrytis, preventive spray on tomato seedlings; conditions: Botrytis cinerea, topical, 120 h, tomato seedlings sprayed to run-off, inoculated next day, rated after 48 h + 3 days, read-out: Percentage Disease Control Test F
Outline: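 Tomato seedlings sprayed to run-off with compound suspended in acetone/water (50/50) with 250 ppm Trem® 014, at 200 ppm (800 g/ha) or 40 ppm where marked, then inoculated next day with B. cinerea spores. Held 48 h saturated at 20° C, then 3 days at 27° C; disease control rated visually, 0–100 versus untreated controls.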

[4] = test system: Septoria nodorum; experiment: Test D: wheat glume blotch, preventive spray on wheat seedlings; conditions: Parastagonospora nodorum, 216 h, wheat seedlings sprayed to run-off, inoculated next day, rated after 48 h + 7 days, read-out: Percentage Disease Control Test D
Outline: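 Compounds in acetone/water (50/50) with 250 ppm Trem 014 sprayed to run-off on wheat seedlings at 200 ppm (≈800 g/ha) or 40 ppm where marked. Spore inoculation next day, 48 h saturated atmosphere at 20 °C, then 7 days at 20 °C; visual rating as % disease control versus controls.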

[5] = test system: Septoria tritici; experiment: Test E: wheat leaf blotch, preventive spray on wheat seedlings; conditions: Zymoseptoria tritici, 456 h; 200 ppm; wheat seedlings sprayed to run-off, inoculated next day, rated after 48 h + 19 days; read-out: Percentage Disease Control Test E
Outline: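 Wheat seedlings were sprayed to run-off with compound at 200 ppm (≈800 g/ha) or 40 ppm in acetone/water with surfactant. Spores were inoculated the next day, followed by 48 h saturated atmosphere at 24° C, then 19 days at 20° C. Disease control was visually rated 0–100 relative to controls.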

Structure (SMILES)	pest or weed control at 200 ppm [1]	pest or weed control at 200 ppm [2]	pest or weed control at 200 ppm [3]	pest or weed control at 200 ppm [4]	pest or weed control at 200 ppm [5]
COC(=O)NCc1cc(-n2ccc(-c3ccc4c(c3)CCCO4)n2)ccc1C [Compound 25, methyl N-[[5-[3-(3,4-dihydro-2H-1-benzopyran-6-yl)-1H-pyrazol-1-yl]-2-methylphenyl]methyl]carbamate]	100%	0%	0%	100%	100%
COC(=O)NCc1cc(-c2ccn(-c3ccc4c(c3)CC3(CO4)OCCO3)n2)ccc1Cl [Compound 28, methyl N-[[2-chloro-5-(1-spiro[2H-1-benzopyran-3(4H), 2′-[1,3]dioxolan]-6-yl-1H-pyrazol-3-yl)phenyl]methyl]carbamate]	100%	90%	0%	99%	93%
COC(=O)NCc1cc(-c2ccn(-c3ccc4c(c3)CC(=O)CO4)n2)ccc1Cl [Compound 29, methyl N-[[2-chloro-5-[1-(3,4-dihydro-3-oxo-2H-1-benzopyran-6-yl)-1H-pyrazol-3-yl]phenyl]methyl]carbamate]	0%	17%	0%	99%	10%
COC(=O)NCc1cc(-c2ccn(-c3ccc4c(c3)CC(O)CO4)n2)ccc1Cl (centres unmarked) [Compound 30, methyl N-[[2-chloro-5-[1-(3,4-dihydro-3-hydroxy-2H-1-benzopyran-6-yl)-1H-pyrazol-3-yl]phenyl]methyl]carbamate]	9%	94%	0%	99%	78%

— US8921360B2, “Heterobicycle-substituted azolyl benzene fungicides” (priority 2009, dated 2014)
